As usually defined, the Kd is the equilibrium constant for the complex coming apart. Lower therefore signals a tighter complex. Usually IC50 stands for the concentration that gives 50% inhibition.

T1 sequence (P38646 whole entry, the tested form may be a part): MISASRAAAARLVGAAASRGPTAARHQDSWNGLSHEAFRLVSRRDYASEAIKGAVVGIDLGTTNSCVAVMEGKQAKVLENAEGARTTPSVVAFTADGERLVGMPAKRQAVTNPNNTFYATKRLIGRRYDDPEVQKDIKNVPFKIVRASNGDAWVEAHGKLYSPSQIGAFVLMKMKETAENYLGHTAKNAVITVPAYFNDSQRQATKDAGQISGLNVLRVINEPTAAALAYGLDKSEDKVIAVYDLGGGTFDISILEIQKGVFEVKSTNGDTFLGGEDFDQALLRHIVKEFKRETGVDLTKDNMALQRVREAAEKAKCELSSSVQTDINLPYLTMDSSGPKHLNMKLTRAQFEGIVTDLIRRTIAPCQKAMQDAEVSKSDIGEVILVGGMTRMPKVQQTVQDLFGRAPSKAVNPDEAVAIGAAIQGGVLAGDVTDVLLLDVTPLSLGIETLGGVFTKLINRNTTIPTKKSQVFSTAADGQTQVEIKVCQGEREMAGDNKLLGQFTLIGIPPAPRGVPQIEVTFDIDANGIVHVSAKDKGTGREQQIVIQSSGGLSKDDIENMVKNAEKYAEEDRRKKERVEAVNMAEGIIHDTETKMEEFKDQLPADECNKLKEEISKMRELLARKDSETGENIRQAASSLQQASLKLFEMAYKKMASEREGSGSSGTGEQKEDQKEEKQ

The first assay addresses T1, Stress-70 protein, mitochondrial (Homo sapiens, UniProt P38646). Description: Binding affinity to mortalin substrate binding domain (unknown origin).
Conditions: not given
Regarding `CN1c2ccc(NC(=O)Nc3ccc(C(F)(F)F)cc3)cc2C(C)(C)C(=O)C1(C)C`, binding was put at a Kd of 1500 nM.
With `CC1(C)CCNc2ccc(NC(=S)Nc3ccc(C(F)(F)F)cc3)cc21`, binding was characterised by a dissociation constant (Kd) of 3300 nM.
`CN1c2ccc(NC(=S)Nc3ccc([N+](=O)[O-])cc3)cc2C(C)(C)CC1(C)C` showed a Kd of 500 nM.
Take `CC1(C)CC(C)(C)c2cc(NC(=S)Nc3ccc([N+](=O)[O-])cc3)ccc2S1` [SHETA-2]: binding was put at a Kd of 600 nM.
Still for that read-out and setting: for `CN1c2ccc(NC(=S)Nc3ccc(OC(F)(F)F)cc3)cc2C(C)(C)C(=O)C1(C)C` the value was 2400 nM; for `CC1(C)CCNc2ccc(NC(=S)Nc3ccc(OC(F)(F)F)cc3)cc21`, 5400 nM.
The same measure, in the same setting: for `CN1c2ccc(NC(=O)Nc3ccc([N+](=O)[O-])cc3)cc2C(C)(C)C(=O)C1(C)C` the value was 300 nM; for `CN1c2ccc(NC(=S)Nc3ccc([N+](=O)[O-])cc3)cc2C(C)(C)C(=O)C1(C)C`, 1100 nM; for `CN1c2ccc(NC(=S)Nc3ccc(C(F)(F)F)cc3)cc2C(C)(C)C(O)C1(C)C` (configuration not stated), 2300 nM.
Same read-out and setting: for `CC1(C)CC[N+](C)(C)c2ccc(NC(=O)Nc3ccc([N+](=O)[O-])cc3)cc21` the value was 700 nM; for `CN1c2ccc(NC(=O)Nc3ccc(N)cc3)cc2C(C)(C)C(=O)C1(C)C`, 1100 nM; for `CC1(C)CCNc2ccc(NC(=S)Nc3ccc([N+](=O)[O-])cc3)cc21`, 1600 nM.
In turn, `CN1c2ccc(NC(=O)Nc3ccc(OC(F)(F)F)cc3)cc2C(C)(C)C(O)C1(C)C` (configuration not stated) displayed a Kd of 1100 nM.
In turn, `CN1c2ccc(NC(=S)Nc3ccc(OC(F)(F)F)cc3)cc2C(C)(C)C(O)C1(C)C` (configuration not stated) came in with a Kd of 2900 nM.
Same read-out and setting: for `CN1c2ccc(NC(=O)Nc3ccc(OC(F)(F)F)cc3)cc2C(C)(C)C(=O)C1(C)C` the value was 1800 nM; for `CN1c2ccc(NC(=O)Nc3ccc([N+](=O)[O-])cc3)cc2C(C)(C)C(O)C1(C)C` (configuration not stated), 1600 nM.
Turning to `CN1c2ccc(NC(=O)Nc3ccc(C(F)(F)F)cc3)cc2C(C)(C)C(O)C1(C)C` (configuration not stated), binding was characterised by a dissociation constant (Kd) of 700 nM.
`CC1(C)CCNc2ccc(NC(=O)Nc3ccc([N+](=O)[O-])cc3)cc21` gave a Kd of 1100 nM.

The test system of the next assay is A2780. Description: Antiproliferative activity against human A2780 cells assessed as cell growth inhibition at 2 to 8 uM measured after 72 hrs by CellTiter 96 non-radioactive cell proliferation assay relative to control. In kind it is functional.
Conditions: not given
Consider `CN1c2ccc(NC(=S)Nc3ccc([N+](=O)[O-])cc3)cc2C(C)(C)C(O)C1(C)C` (configuration not stated), for which the Efficacy came to 25%.
Take `CN1c2ccc(NC(=S)Nc3ccc(C(F)(F)F)cc3)cc2C(C)(C)C(=O)C1(C)C`: the Efficacy was 90.8%.

Another assay deals with T1, Stress-70 protein, mitochondrial.
Conditions: not given
With `CN1c2ccc(NC(=O)Nc3ccc(C(F)(F)F)cc3)cc2C(C)(C)C(=O)C1(C)C`, the deltaG was -8 kcal/mol.
`CC1(C)CCNc2ccc(NC(=S)Nc3ccc(C(F)(F)F)cc3)cc21` registered a deltaG of -7.5 kcal/mol.
Still for that read-out and setting: the same measure for `CN1c2ccc(NC(=S)Nc3ccc([N+](=O)[O-])cc3)cc2C(C)(C)CC1(C)C`: -8.7 kcal/mol; for `CC1(C)CC(C)(C)c2cc(NC(=S)Nc3ccc([N+](=O)[O-])cc3)ccc2S1` [SHETA-2]: -8.5 kcal/mol; for `CN1c2ccc(NC(=S)Nc3ccc(OC(F)(F)F)cc3)cc2C(C)(C)C(=O)C1(C)C`: -7.7 kcal/mol.
Same read-out and setting: for `CC1(C)CCNc2ccc(NC(=S)Nc3ccc(OC(F)(F)F)cc3)cc21` the value was -7.2 kcal/mol; for `CN1c2ccc(NC(=O)Nc3ccc([N+](=O)[O-])cc3)cc2C(C)(C)C(=O)C1(C)C`, -8.9 kcal/mol.
Still for that read-out and setting: the same measure for `CN1c2ccc(NC(=S)Nc3ccc([N+](=O)[O-])cc3)cc2C(C)(C)C(=O)C1(C)C`: -8.2 kcal/mol; for `CN1c2ccc(NC(=S)Nc3ccc(C(F)(F)F)cc3)cc2C(C)(C)C(O)C1(C)C` (configuration not stated): -7.7 kcal/mol; for `CC1(C)CC[N+](C)(C)c2ccc(NC(=O)Nc3ccc([N+](=O)[O-])cc3)cc21`: -8.5 kcal/mol.
For `CN1c2ccc(NC(=O)Nc3ccc(N)cc3)cc2C(C)(C)C(=O)C1(C)C`, the deltaG was -8.2 kcal/mol.
`CC1(C)CCNc2ccc(NC(=S)Nc3ccc([N+](=O)[O-])cc3)cc21` yielded a deltaG of -7.9 kcal/mol.
With `CN1c2ccc(NC(=O)Nc3ccc(OC(F)(F)F)cc3)cc2C(C)(C)C(O)C1(C)C` (configuration not stated), the deltaG is -8.2 kcal/mol.
The compound `CN1c2ccc(NC(=S)Nc3ccc(OC(F)(F)F)cc3)cc2C(C)(C)C(O)C1(C)C` (configuration not stated) displayed a deltaG of -7.6 kcal/mol.
In turn, `CN1c2ccc(NC(=O)Nc3ccc(OC(F)(F)F)cc3)cc2C(C)(C)C(=O)C1(C)C` displayed a deltaG of -7.9 kcal/mol.
Take `CN1c2ccc(NC(=O)Nc3ccc([N+](=O)[O-])cc3)cc2C(C)(C)C(O)C1(C)C` (configuration not stated): the deltaG is -8 kcal/mol.
In turn, `CN1c2ccc(NC(=O)Nc3ccc(C(F)(F)F)cc3)cc2C(C)(C)C(O)C1(C)C` (configuration not stated) showed a deltaG of -8.4 kcal/mol.
In turn, `CC1(C)CCNc2ccc(NC(=O)Nc3ccc([N+](=O)[O-])cc3)cc21` had a deltaG of -8.2 kcal/mol.

The next assay concerns A2780. Description: Antiproliferative activity against human A2780 cells assessed as cell growth inhibition measured after 72 hrs by CellTiter 96 non-radioactive cell proliferation assay. In kind it is functional, cell-based. The conditions noted are these: A2780, 72 h.
With `CN1c2ccc(NC(=O)Nc3ccc(C(F)(F)F)cc3)cc2C(C)(C)C(=O)C1(C)C`, the IC50 was determined as 2.58 µM.
On the same count and under the same terms, the same measure for `CC1(C)CCNc2ccc(NC(=S)Nc3ccc(C(F)(F)F)cc3)cc21`: 6 µM.
Still for that read-out and setting: the same measure for `CN1c2ccc(NC(=S)Nc3ccc([N+](=O)[O-])cc3)cc2C(C)(C)CC1(C)C`: 4.5 µM; for `CN1c2ccc(NC(=S)Nc3ccc(OC(F)(F)F)cc3)cc2C(C)(C)C(=O)C1(C)C`: 5.4 µM.
With `CC1(C)CCNc2ccc(NC(=S)Nc3ccc(OC(F)(F)F)cc3)cc21`, the IC50 turned out to be 7.1 µM.
As for `CN1c2ccc(NC(=O)Nc3ccc([N+](=O)[O-])cc3)cc2C(C)(C)C(=O)C1(C)C`, the concentration for half-maximal inhibition (IC50) is 3.8 µM.
The same measure, in the same setting: for `CN1c2ccc(NC(=S)Nc3ccc([N+](=O)[O-])cc3)cc2C(C)(C)C(O)C1(C)C` (configuration not stated) the value was 10 µM; for `CN1c2ccc(NC(=S)Nc3ccc([N+](=O)[O-])cc3)cc2C(C)(C)C(=O)C1(C)C`, 4.4 µM; for `CN1c2ccc(NC(=S)Nc3ccc(C(F)(F)F)cc3)cc2C(C)(C)C(=O)C1(C)C`, 3.9 µM.
Same read-out and setting: the same measure for `CN1c2ccc(NC(=S)Nc3ccc(C(F)(F)F)cc3)cc2C(C)(C)C(O)C1(C)C` (configuration not stated): 7.6 µM; for `CC1(C)CC[N+](C)(C)c2ccc(NC(=O)Nc3ccc([N+](=O)[O-])cc3)cc21`: 6.6 µM; for `CN1c2ccc(NC(=O)Nc3ccc(N)cc3)cc2C(C)(C)C(=O)C1(C)C`: 7.7 µM.
Turning to `CC1(C)CCNc2ccc(NC(=S)Nc3ccc([N+](=O)[O-])cc3)cc21`, the IC50 was found to be 7.1 µM.
Still for that read-out and setting: for `CN1c2ccc(NC(=O)Nc3ccc(OC(F)(F)F)cc3)cc2C(C)(C)C(O)C1(C)C` (configuration not stated) the value was 7.8 µM; for `CN1c2ccc(NC(=S)Nc3ccc(OC(F)(F)F)cc3)cc2C(C)(C)C(O)C1(C)C` (configuration not stated), 13.1 µM; for `CN1c2ccc(NC(=O)Nc3ccc(OC(F)(F)F)cc3)cc2C(C)(C)C(=O)C1(C)C`, 2.4 µM.
`CN1c2ccc(NC(=O)Nc3ccc([N+](=O)[O-])cc3)cc2C(C)(C)C(O)C1(C)C` (configuration not stated): the IC50 stood at 8.4 µM.
Turning to `CN1c2ccc(NC(=O)Nc3ccc(C(F)(F)F)cc3)cc2C(C)(C)C(O)C1(C)C` (configuration not stated), the IC50 amounted to 6.7 µM.
On the same count and under the same terms, the same measure for `CC1(C)CCNc2ccc(NC(=O)Nc3ccc([N+](=O)[O-])cc3)cc21`: 6.9 µM.
